# Reference: US7625507B2, “Extrusion process for forming chemically stable drug multiparticulates” (Pfizer Inc., priority 2003, dated 2009)
# Test: Lability of drug held in molten mixture for 60 minutes
# Format: physicochemical
# Conditions: 50 wt % azithromycin dihydrate
# Procedure: The multiparticulates formed by the process of the present invention comprise a labile drug and a carrier. As used herein the term “labile” refers to drugs that degrade by at least 0.01 wt % when held in a molten mixture of drug, carrier and optional excipient(s) for 60 minutes. Details on carriers and optional excipients are discussed below. The term “drug” as used herein includes, by way of example and not of limitation, any physiologically or pharmacologically active substance that produces a localized or systemic effect in animals. The term “animals” includes mammals, particularly humans, as well as other animals.
# Labile drugs may be identified experimentally by determining whether the drug chemically reacts or degrades when held in the molten mixture of drug, carrier and optional excipients for 60 minutes. In general, drug degradation may be measured using any conventional method for measuring the purity or potency of drug in a pharmaceutical composition. For example, the purity or potency of the drug substance prior to formation of the molten mixture may be measured using high-performance liquid chromatography (HPLC) or other analytical techniques well known in the art. […] The purity or potency of the drug after being in the molten mixture for 60 minutes is then determined. […]
compound,measurement,setting,value
"CC[C@H]1OC(=O)[C@H](C)[C@@H](O[C@H]2C[C@@](C)(OC)[C@@H](O)[C@H](C)O2)[C@H](C)[C@@H](O[C@@H]2O[C@H](C)C[C@H](N(C)C)[C@H]2O)[C@](C)(O)C[C@@H](C)CN(C)[C@H](C)[C@@H](O)[C@]1(C)O [azithromycin, 9a-aza-9a-methyl-9-deoxo-9a-homoerythromycin A]",lability in molten mixture,"47 wt % COMPRITOL 888 ATO, 3 wt % LUTROL F127 at 90° C. for 60 minutes",labile
same,lability in molten mixture,"48 wt % microcrystalline wax, 2 wt % LUTROL F127, held 60 minutes",not labile
